From patent US8513271B2, “Pyrimidine compounds as delta opioid receptor modulators” (Janssen Pharmaceutica, NV, priority 2009, dated 2013)
Like-named read-outs stand apart in the source and are kept apart here.

Experiments:
[1] = target: T1, delta opioid receptor (Mus musculus, UniProt P32300); assay: NG108-15, 24-well delta opioid receptor binding assay
T1 construct: NG108-15 cell membranes were purchased from Applied Cell Sciences (Rockville, Md.); host or cells: NG108-15 cell membranes

[2] = target: T1, delta opioid receptor; assay: [35S]GTPγS binding assay in NG108-15 cell membranes (delta opioid functional assay), 200 nM screen; format: biochemical; conditions: NG108-15 cell membranes; for GTPγS δ-RelEfficacy @200 nM: 200 nM test compound, relative to calculated max of SNC80 dose response curve; for GTPγS δ-RelEfficacy @200 nM / EC50: averages if tested more than once; for EC50: read-out: GTPγS δ-opioid receptor EC50; for GTPγS δ-opioid receptor Rel Efficacy: relative efficacy from dose response
[3] = [3H]Naltrindole ligand, NG108-15 cell membranes, read-out: δ-binding NG108 cell membrane Ki

T1 sequence (P32300 whole entry): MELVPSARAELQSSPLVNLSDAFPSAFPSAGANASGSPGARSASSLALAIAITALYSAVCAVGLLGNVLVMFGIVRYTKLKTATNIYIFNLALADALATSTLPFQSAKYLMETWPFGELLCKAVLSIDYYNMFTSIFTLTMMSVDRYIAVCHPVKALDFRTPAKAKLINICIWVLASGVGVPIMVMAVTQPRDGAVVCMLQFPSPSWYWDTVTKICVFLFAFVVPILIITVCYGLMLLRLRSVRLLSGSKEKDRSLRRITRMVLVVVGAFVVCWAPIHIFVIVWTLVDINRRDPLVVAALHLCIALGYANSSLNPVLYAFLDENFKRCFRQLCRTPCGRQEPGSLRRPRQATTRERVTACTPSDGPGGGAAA

| Ki [1, 3] [nM] | GTPγS δ-RelEfficacy @200 nM [2] | EC50 [2] [nM] | GTPγS δ-opioid receptor Rel Efficacy [2] | Compound | Ki [1] [nM] |
| --- | --- | --- | --- | --- | --- |
| 9 |  | > 10000 |  | N#Cc1ccc(Oc2nc(-c3cccnc3)ncc2NC[C@@H]2CCCN2)cc1F [Cpd 137] |  |
| 0.4 |  | 387 | 1.197 | N#Cc1cncc(-c2ncc(NC[C@@H]3CCCN3)c(Oc3ccc(F)cc3)n2)c1 [Cpd 146] |  |
| 0.4 | 0.607 | 70 | 1.083 | CSc1ccc(Oc2nc(-c3cccnc3)ncc2NC[C@@H]2CCCN2)cc1 [Cpd 152] |  |
| 7 |  | 9000 | 0.789 | N#Cc1ccc(Oc2nc(-c3cccnc3)ncc2NC[C@@H]2CCCN2)cc1 [Cpd 136] |  |
| 0.3 | 0.633 | 55.1 | 0.976 | N#Cc1cncc(-c2ncc(NC[C@@H]3CCCN3)c(Oc3ccc(Cl)cc3)n2)c1 [Cpd 129] |  |
| 1 | 0.403 | 236 | 1.026 | Cc1ccc(Oc2nc(-c3cccnc3)ncc2NC[C@@H]2CCCN2)cc1 [Cpd 149] |  |
| 2 |  | 2270 | 1.118 | CC(C)Oc1ccc(Oc2nc(-c3cncc(C#N)c3)ncc2NC[C@@H]2CCCN2)cc1 [Cpd 139] |  |
| 1 | 0.411 | 158 | 1.052 | Cc1ccc(Oc2nc(-c3cncnc3)ncc2NC[C@@H]2CCCN2)cc1 [Cpd 148] |  |
| 2280 |  |  |  | O=C(O)c1cccc(Oc2nc(-c3cncc(F)c3)ncc2NC[C@@H]2CCCN2)c1 [Cpd 164] |  |

Second part, the compound before the results:

| Compound | Ki [1, 3] [nM] | GTPγS δ-RelEfficacy @200 nM [2] | EC50 [2] [nM] | GTPγS δ-opioid receptor Rel Efficacy [2] | Ki [1] [nM] |
| --- | --- | --- | --- | --- | --- |
| O=C(c1cccc(Oc2nc(-c3cccnc3)ncc2NC[C@@H]2CCCN2)c1)N1CCOCC1 [Cpd 168] | 50 | 0.300 |  |  |  |
| COc1ccc(Oc2nc(-c3cncnc3)ncc2NC[C@@H]2CCCN2)cc1F [Cpd 133] | 0.4 | 0.755 | 28 | 1.041 |  |
| COc1ccc(Oc2nc(-c3cncnc3)ncc2NC2CC(N)C2)cc1 (stereo not drawn) [Cpd 304] |  | 0.228 |  |  | 2 |
| Oc1ccc(Oc2nc(-c3cncnc3)ncc2NC[C@@H]2CCCN2)cc1 [Cpd 156, 4-{5-[(Pyrrolidin-2-(S)-ylmethyl)-amino]-[2,5]bipyrimidinyl-4-yloxy}-phenol] |  |  | 177 |  | 1 |
| O=C(c1ccc(Oc2nc(-c3cccnc3)ncc2NC[C@@H]2CCCN2)cc1)N1CCCC1 [Cpd 158] | 1600 |  |  |  |  |
| CCN(CC)C(=O)c1cccc(Oc2nc(-c3cccnc3)ncc2NC[C@@H]2CCCN2)c1 [Cpd 157] | 40 | 0.213 |  |  |  |
| FC(F)(F)COc1ccc(Oc2nc(-c3cncnc3)ncc2NC[C@@H]2CCCN2)cc1 [Cpd 123] | 0.4 | 0.653 | 57 | 1.124 |  |
| OCc1ccc(Oc2nc(-c3cncnc3)ncc2NC[C@@H]2CCCN2)cc1 [Cpd 144] |  | 0.191 |  |  | 7 |
| OCc1ccc(Oc2nc(-c3cccnc3)ncc2NC[C@@H]2CCCN2)cc1 [Cpd 145] | 5 |  | 4020 | 1.180 |  |
| CC(C)Oc1ccc(Oc2nc(-c3cncnc3)ncc2NC[C@@H]2CCCN2)cc1 [Cpd 140] | 8 | 0.137 |  |  |  |
| CN1CCN(C(=O)c2ccc(Oc3nc(-c4cccnc4)ncc3NC[C@@H]3CCCN3)cc2)CC1 [Cpd 162] | 852 |  |  |  |  |
| O=C(O)c1cccc(Oc2nc(-c3cccnc3)ncc2NC[C@@H]2CCCN2)c1 [Cpd 163] | 6390 |  |  |  |  |
| O=C(O)c1ccc(Oc2nc(-c3cccnc3)ncc2NC[C@@H]2CCCN2)cc1 [Cpd 159] | 4450 |  |  |  |  |
| COc1ccc(Oc2nc(-c3cncnc3)ncc2NC[C@@H](N)CC(C)C)cc1 [Cpd 295] |  |  |  |  | 64 |
| CN1CCN(C(=O)c2cccc(Oc3nc(-c4cccnc4)ncc3NC[C@@H]3CCCN3)c2)CC1 [Cpd 169] | 33 |  |  |  |  |
